In the NIST ThermoML archive (doi:10.1021/acs.jced.7b00002):
Numbers after ± are expanded uncertainties.

What was measured:
[1] = xn = mol fraction of the nth substance listed; conditions: 97.6 kPa, Liquid, x2 = 0; for viscosity: Capillary tube (Ostwald / Ubbelohde) method; for mass density: Vibrating tube method
[2] = 97.6 kPa, Liquid; for viscosity: Capillary tube (Ostwald / Ubbelohde) method; for mass density: Vibrating tube method

CN(C)C=O [dimethylformamide] + CCCCCCCC[n+]1ccn(C)c1.[Cl-]
[1]
Conditions	mass density [kg/m3]	viscosity [mPa·s]
303.15 K	939.18 ± 1.9	0.77
308.15 K	934.41 ± 1.9	0.72
313.15 K	929.64 ± 1.9	0.68
318.15 K	924.86 ± 1.9	0.65
323.15 K	920.07 ± 1.9	0.62
328.15 K	915.26 ± 1.8	0.59
333.15 K	910.44 ± 1.8	0.56
338.15 K	905.6 ± 1.8	0.54
343.15 K	900.74 ± 1.8	0.51
348.15 K	895.87 ± 1.8	0.49
353.15 K	890.98 ± 1.8	0.47

CN(C)C=O [dimethylformamide]
[2]
Conditions	mass density [kg/m3]	viscosity [mPa·s]
303.15 K	939.18 ± 1.9	0.77
308.15 K	934.41 ± 1.9	0.72
313.15 K	929.64 ± 1.9	0.68
318.15 K	924.86 ± 1.9	0.65
323.15 K	920.07 ± 1.9	0.62
328.15 K	915.26 ± 1.8	0.59
333.15 K	910.44 ± 1.8	0.56
338.15 K	905.6 ± 1.8	0.54
343.15 K	900.74 ± 1.8	0.51
348.15 K	895.87 ± 1.8	0.49
353.15 K	890.98 ± 1.8	0.47

c1ccncc1 [pyridine]
[2]
Conditions	mass density [kg/m3]	viscosity [mPa·s]
303.15 K	973.09 ± 1.9	0.84
308.15 K	968.06 ± 1.9	0.79
313.15 K	963.02 ± 1.9	0.74
318.15 K	957.97 ± 1.9	0.7
323.15 K	952.9 ± 1.9	0.66
328.15 K	947.82 ± 1.9	0.62
333.15 K	942.72 ± 1.9	0.59
338.15 K	937.6 ± 1.9	0.56
343.15 K	932.46 ± 1.9	0.53
348.15 K	927.3 ± 1.9	0.51
353.15 K	922.12 ± 1.9	0.48

CC(=O)N(C)C [N,N-dimethylethanamide] + CCCCCCCC[n+]1ccn(C)c1.[Cl-]
[1]
Conditions	mass density [kg/m3]	viscosity [mPa·s]
303.15 K	931.85 ± 2	0.89
308.15 K	927.26 ± 2	0.83
313.15 K	922.66 ± 2	0.78
318.15 K	918.06 ± 2	0.74
323.15 K	913.44 ± 1.9	0.7
328.15 K	908.81 ± 1.9	0.66
333.15 K	904.16 ± 1.9	0.63
338.15 K	899.53 ± 1.9	0.6
343.15 K	894.87 ± 1.9	0.57
348.15 K	890.19 ± 1.9	0.54
353.15 K	885.51 ± 1.9	0.52

CC(=O)N(C)C [N,N-dimethylethanamide]
[2]
Conditions	mass density [kg/m3]	viscosity [mPa·s]
303.15 K	931.85 ± 2	0.89
308.15 K	927.26 ± 2	0.83
313.15 K	922.66 ± 2	0.78
318.15 K	918.06 ± 2	0.74
323.15 K	913.44 ± 1.9	0.7
328.15 K	908.81 ± 1.9	0.66
333.15 K	904.16 ± 1.9	0.63
338.15 K	899.53 ± 1.9	0.6
343.15 K	894.87 ± 1.9	0.57
348.15 K	890.19 ± 1.9	0.54
353.15 K	885.51 ± 1.9	0.52

CCCCCCCC[n+]1ccn(C)c1.[Cl-] [1-methyl-3-octylimidazolium chloride]
[2]
Conditions	mass density [kg/m3]	viscosity [mPa·s]
303.15 K	1006.2 ± 2.2	7339.7
308.15 K	1003.33 ± 2.1	4272.9
313.15 K	1000.48 ± 2.1	2766.9
318.15 K	997.64 ± 2.1	1788.6
323.15 K	994.82 ± 2.1	1198.7
328.15 K	992 ± 2.1	828.3
333.15 K	989.17 ± 2.1	588.69
338.15 K	986.38 ± 2.1	426.28
343.15 K	983.63 ± 2.1	316.66
348.15 K	980.88 ± 2.1	237.14
353.15 K	978.13 ± 2.1	181.41

C[S+](C)[O-] [dimethyl sulfoxide]
[2]
Conditions	mass density [kg/m3]	viscosity [mPa·s]
303.15 K	1090.29 ± 2.2	1.8
308.15 K	1085.28 ± 2.2	1.66
313.15 K	1080.3 ± 2.2	1.53
318.15 K	1075.31 ± 2.2	1.41
323.15 K	1070.32 ± 2.2	1.3
328.15 K	1065.33 ± 2.1	1.21
333.15 K	1060.34 ± 2.1	1.13
338.15 K	1055.34 ± 2.1	1.06
343.15 K	1050.35 ± 2.1	0.99
348.15 K	1045.34 ± 2.1	0.93
353.15 K	1040.33 ± 2.1	0.88

c1ccncc1 [pyridine] + CCCCCCCC[n+]1ccn(C)c1.[Cl-]
[1]
Conditions	mass density [kg/m3]	viscosity [mPa·s]
303.15 K	973.09 ± 1.9	0.84
308.15 K	968.06 ± 1.9	0.79
313.15 K	963.02 ± 1.9	0.74
318.15 K	957.97 ± 1.9	0.7
323.15 K	952.9 ± 1.9	0.66
328.15 K	947.82 ± 1.9	0.62
333.15 K	942.72 ± 1.9	0.59
338.15 K	937.6 ± 1.9	0.56
343.15 K	932.46 ± 1.9	0.53
348.15 K	927.3 ± 1.9	0.51
353.15 K	922.12 ± 1.9	0.48

C[S+](C)[O-] [dimethyl sulfoxide] + CCCCCCCC[n+]1ccn(C)c1.[Cl-]
[1]
Conditions	mass density [kg/m3]	viscosity [mPa·s]
303.15 K	1090.29 ± 2.2	1.8
308.15 K	1085.28 ± 2.2	1.66
313.15 K	1080.3 ± 2.2	1.53
318.15 K	1075.31 ± 2.2	1.41
323.15 K	1070.32 ± 2.2	1.3
328.15 K	1065.33 ± 2.1	1.21
333.15 K	1060.34 ± 2.1	1.13
338.15 K	1055.34 ± 2.1	1.06
343.15 K	1050.35 ± 2.1	0.99
348.15 K	1045.34 ± 2.1	0.93
353.15 K	1040.33 ± 2.1	0.88
